ChEMBL document CHEMBL4184305, “Inhibition of histone lysine methyltransferases G9a and GLP by ejection of structural Zn(II)” (Bioorg Med Chem Lett, 2018)
Where a name gives a salt, the structure may show the parent alone. Active and inactive are the calls of the source. The calls are words filed in the database; no cut-off is given here.

How the values were obtained:
[1] = target: T1, Histone-lysine N-methyltransferase EHMT2 (Homo sapiens) (UniProt Q96KQ7); assay: (§1) Inhibition of wild type recombinant human histone lysine methyltransferase G9a (913 to 1193 residues) expressed in Escherichia coli Rosetta BL21 DE3 PlysS at 10 uM using ARTKQTARKSTGGKA as substrate preincubated for 5 mins followed by substrate/SAM addition measured after 60 mins by MALDI-TOF MS analysis
T1 sequence (whole entry): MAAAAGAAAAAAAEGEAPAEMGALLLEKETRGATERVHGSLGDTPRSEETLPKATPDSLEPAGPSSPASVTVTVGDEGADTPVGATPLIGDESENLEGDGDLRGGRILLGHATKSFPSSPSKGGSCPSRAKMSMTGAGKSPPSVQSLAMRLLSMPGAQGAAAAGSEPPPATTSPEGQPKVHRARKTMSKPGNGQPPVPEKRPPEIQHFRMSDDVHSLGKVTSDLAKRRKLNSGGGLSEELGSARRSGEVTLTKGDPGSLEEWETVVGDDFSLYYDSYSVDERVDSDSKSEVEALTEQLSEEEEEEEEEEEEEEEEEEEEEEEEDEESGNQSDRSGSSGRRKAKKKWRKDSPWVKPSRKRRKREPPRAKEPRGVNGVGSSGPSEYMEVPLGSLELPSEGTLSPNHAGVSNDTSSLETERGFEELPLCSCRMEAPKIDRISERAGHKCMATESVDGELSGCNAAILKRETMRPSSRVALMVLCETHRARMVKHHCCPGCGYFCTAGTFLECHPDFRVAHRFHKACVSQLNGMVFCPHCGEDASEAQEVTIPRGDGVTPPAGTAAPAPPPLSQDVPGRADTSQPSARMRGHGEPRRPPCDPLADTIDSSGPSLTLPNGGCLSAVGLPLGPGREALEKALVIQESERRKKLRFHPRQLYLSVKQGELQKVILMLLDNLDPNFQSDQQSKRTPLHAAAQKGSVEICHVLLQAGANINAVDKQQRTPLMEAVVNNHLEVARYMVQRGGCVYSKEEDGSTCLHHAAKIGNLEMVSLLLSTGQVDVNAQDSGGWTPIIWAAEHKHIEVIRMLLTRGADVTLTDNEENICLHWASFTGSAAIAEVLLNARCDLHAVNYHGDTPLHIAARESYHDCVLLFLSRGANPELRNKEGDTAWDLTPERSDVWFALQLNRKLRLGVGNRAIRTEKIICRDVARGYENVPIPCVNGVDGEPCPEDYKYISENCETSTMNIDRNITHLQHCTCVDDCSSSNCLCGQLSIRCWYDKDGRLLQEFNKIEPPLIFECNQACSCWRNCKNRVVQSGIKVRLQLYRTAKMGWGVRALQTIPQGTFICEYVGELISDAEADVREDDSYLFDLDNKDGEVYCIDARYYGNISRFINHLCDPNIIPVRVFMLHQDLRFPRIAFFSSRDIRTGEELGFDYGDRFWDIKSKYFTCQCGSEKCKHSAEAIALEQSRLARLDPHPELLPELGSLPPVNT

[2] = target: T1, Histone-lysine N-methyltransferase EHMT2 (Homo sapiens); assay: Inhibition of wild type recombinant human histone lysine methyltransferase G9a (913 to 1193 residues) expressed in Escherichia coli Rosetta BL21 DE3 PlysS assessed as zinc ions ejection from Cys4-Zn finger at 100 uM by FluoZin-3 based fluorescence assay
[3] = target: T2, Histone-lysine N-methyltransferase EHMT1 (Homo sapiens) (UniProt Q9H9B1); assay: as §1, with “GLP (951” for “G9a (913”, “1235” for “1193”, “100” for “10”
T2 sequence (whole entry): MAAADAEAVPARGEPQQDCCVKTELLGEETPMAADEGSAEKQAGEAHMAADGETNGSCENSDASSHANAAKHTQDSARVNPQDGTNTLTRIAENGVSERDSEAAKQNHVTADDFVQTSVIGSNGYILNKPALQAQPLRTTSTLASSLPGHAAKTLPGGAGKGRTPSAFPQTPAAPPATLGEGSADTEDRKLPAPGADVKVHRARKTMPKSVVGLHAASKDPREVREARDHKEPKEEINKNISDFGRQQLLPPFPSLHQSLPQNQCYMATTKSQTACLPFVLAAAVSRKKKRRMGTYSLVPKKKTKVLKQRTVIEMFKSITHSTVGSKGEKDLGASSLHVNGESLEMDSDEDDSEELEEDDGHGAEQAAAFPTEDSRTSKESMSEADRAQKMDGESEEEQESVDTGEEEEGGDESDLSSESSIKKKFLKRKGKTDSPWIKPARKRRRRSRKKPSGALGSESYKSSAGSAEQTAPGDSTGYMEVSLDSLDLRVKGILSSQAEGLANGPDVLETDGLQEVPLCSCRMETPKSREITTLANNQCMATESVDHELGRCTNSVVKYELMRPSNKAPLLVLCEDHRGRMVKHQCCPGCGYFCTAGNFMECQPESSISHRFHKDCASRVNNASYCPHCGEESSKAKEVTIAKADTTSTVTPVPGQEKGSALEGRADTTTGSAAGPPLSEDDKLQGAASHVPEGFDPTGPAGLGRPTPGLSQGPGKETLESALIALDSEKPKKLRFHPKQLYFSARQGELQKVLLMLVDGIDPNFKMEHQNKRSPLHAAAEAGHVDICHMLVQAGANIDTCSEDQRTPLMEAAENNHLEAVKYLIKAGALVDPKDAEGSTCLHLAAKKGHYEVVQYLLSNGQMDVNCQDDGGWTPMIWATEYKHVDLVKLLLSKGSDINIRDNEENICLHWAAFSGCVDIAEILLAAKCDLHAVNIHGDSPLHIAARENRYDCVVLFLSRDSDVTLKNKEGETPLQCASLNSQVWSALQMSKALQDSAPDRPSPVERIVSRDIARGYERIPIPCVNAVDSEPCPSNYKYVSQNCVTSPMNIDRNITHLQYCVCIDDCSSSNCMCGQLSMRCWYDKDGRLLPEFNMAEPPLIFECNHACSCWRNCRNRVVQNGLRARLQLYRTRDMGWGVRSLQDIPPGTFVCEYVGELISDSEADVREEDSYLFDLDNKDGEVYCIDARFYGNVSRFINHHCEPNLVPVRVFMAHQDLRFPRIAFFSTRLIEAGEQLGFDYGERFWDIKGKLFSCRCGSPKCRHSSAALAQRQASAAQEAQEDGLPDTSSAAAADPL

[4] = target: T1, Histone-lysine N-methyltransferase EHMT2 (Homo sapiens); assay: as §1, with “100” for “10”
[5] = target: T3, Histone-lysine N-methyltransferase EHMT1 (Homo sapiens, UniProt Q9H9B1); assay: (§2) Inhibition of wild type recombinant human histone lysine methyltransferase GLP (951 to 1235 residues) expressed in Escherichia coli Rosetta BL21 DE3 PlysS using ARTKQTARKSTGGKA as substrate preincubated for 5 mins followed by substrate/SAM addition measured after 60 mins by MALDI-TOF MS analysis
T3 sequence (Q9H9B1 whole entry): T2 sequence (whole entry)

[6] = target: T2, Histone-lysine N-methyltransferase EHMT1 (Homo sapiens); assay: as §2, with “PlysS at 10 uM” for “PlysS”
[7] = target: T2, Histone-lysine N-methyltransferase EHMT1 (Homo sapiens); assay: Inhibition of wild type recombinant human histone lysine methyltransferase GLP (951 to 1235 residues) expressed in Escherichia coli Rosetta BL21 DE3 PlysS assessed as zinc ions ejection from Cys4-Zn finger at 100 uM by FluoZin-3 based fluorescence assay
[8] = target: T4, Histone-lysine N-methyltransferase EHMT2 (Homo sapiens, UniProt Q96KQ7); assay: Inhibition of wild type recombinant human histone lysine methyltransferase G9a (913 to 1193 residues) expressed in Escherichia coli Rosetta BL21 DE3 PlysS using ARTKQTARKSTGGKA as substrate preincubated for 5 mins followed by substrate/SAM addition measured after 60 mins by MALDI-TOF MS analysis
T4 sequence (Q96KQ7 whole entry): T1 sequence (whole entry)

Structure (SMILES)	inhibition [1]	inhibition [2]	inhibition [3]	inhibition [4]	IC50 [5]	inhibition [6]	inhibition [7]	IC50 [8]
c1ccc(SSc2ccccn2)nc1	inactive	Active	> 50%	> 50%	2700 nM	inactive	Active	650 nM
O=C1c2ccccc2C(=O)C1(O)O	inactive	Active	40%		> 100000 nM	inactive	Active	54000 nM
c1ccc([Se][Se]c2ccccc2)cc1	inactive	Active	> 50%	> 50%	860 nM	inactive	Active	550 nM
Cl[Se]c1ccccc1	inactive	Active	> 50%	> 50%	1100 nM	inactive	Active	1200 nM
Br[Se]c1ccccc1	inactive	Active	> 50%	> 50%	1500 nM	inactive	Active	790 nM
O=C1c2ccccc2C(=O)N1[Se]c1ccccc1	inactive	Active	> 50%	> 50%	1000 nM	inactive	Active	450 nM
COc1cc2c(NC3CCN(C(C)C)CC3)nc(C3CCCCC3)nc2cc1OCCCN1CCCC1		Active					Active	
C[S+](C)[O-]		Active					Active	
O=C1c2ccccc2C(=O)c2ccccc21 [ANTHRAQUINONE]	inactive	Active	20%	20%	> 100000 nM	inactive	Active	> 100000 nM
O=[Se](O)c1ccccc1 [BENZENE SELENOIC ACID]	inactive	Active	> 50%	> 50%	4900 nM	inactive	Active	4400 nM
NCCSSCCN [CYSTAMINE DIHYDROCHLORIDE]	inactive	Active			> 100000 nM	inactive	Active	15000 nM
NCCS [CYSTEAMINE]	inactive	Active			> 100000 nM	inactive	Active	> 100000 nM
CCN(CC)C(=S)S [DITIOCARB SODIUM]	inactive	Active	> 50%	> 50%	81000 nM	inactive	Active	9200 nM
NC(=O)/N=N/C(N)=O [E927A]	inactive	Active	> 50%	> 50%	1700 nM	inactive	Active	500 nM
N[C@@H](CCC(=O)N[C@@H](CS)C(=O)NCC(=O)O)C(=O)O [GLUTATHIONE]	inactive	Active			> 100000 nM	inactive	Active	> 100000 nM
O=C1C=CC(=O)c2ccccc21 [NAPHTHOQUINONE]	inactive	Active	> 50%	> 50%	14000 nM	inactive	Active	2000 nM
O=[Se](=O)(O)O [SODIUM SELENATE]	inactive	Active	10%	10%	> 100000 nM	inactive	Active	> 100000 nM
CN(C)C(=S)SSC(=S)N(C)C [THIRAM]	inactive	Active	> 50%	> 50%	1100 nM	inactive	Active	550 nM
